In patent US20240109900A1, “AZABICYCLIC SHP2 INHIBITORS” (IRBM S.P.A., priority 2021, published 2024):
Like-named read-outs stand apart in the source and are kept apart here.

Key:
[1] = system: ERK phosphorylation in KYSE-520 cells; test: Phospho-ERK cellular assay; assay type: cell-based; conditions: KYSE-520 cells, 2 h at 37° C., phospho-ERK1/2 (Thr202/Tyr204) TR-FRET, read-out: PERK IC50
How it was run: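 TR-FRET read-out of ERK1/2 Thr202/Tyr204 phosphorylation was taken after overnight antibody incubation at room temperature. Before that, KYSE-520 cells were treated 2 h at 37 °C with compound dilutions and lysed 30 min. Percent inhibition relative to vehicle and cell-free wells was fitted four-parametrically to give IC50.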

[2] = target: SHP-2 enzyme (Met1-Leu525) (Homo sapiens (Human), UniProt Q06124); test: SHP2 inhibition enzymatic assay; assay type: biochemical; conditions: 0.5 nM SHP-2 activated by 500 nM IRS1 peptide, 75 μM DiFMUP substrate; read-out: SHP2wt-IC50
SHP-2 enzyme (Met1-Leu525), sequence (Q06124 1-525): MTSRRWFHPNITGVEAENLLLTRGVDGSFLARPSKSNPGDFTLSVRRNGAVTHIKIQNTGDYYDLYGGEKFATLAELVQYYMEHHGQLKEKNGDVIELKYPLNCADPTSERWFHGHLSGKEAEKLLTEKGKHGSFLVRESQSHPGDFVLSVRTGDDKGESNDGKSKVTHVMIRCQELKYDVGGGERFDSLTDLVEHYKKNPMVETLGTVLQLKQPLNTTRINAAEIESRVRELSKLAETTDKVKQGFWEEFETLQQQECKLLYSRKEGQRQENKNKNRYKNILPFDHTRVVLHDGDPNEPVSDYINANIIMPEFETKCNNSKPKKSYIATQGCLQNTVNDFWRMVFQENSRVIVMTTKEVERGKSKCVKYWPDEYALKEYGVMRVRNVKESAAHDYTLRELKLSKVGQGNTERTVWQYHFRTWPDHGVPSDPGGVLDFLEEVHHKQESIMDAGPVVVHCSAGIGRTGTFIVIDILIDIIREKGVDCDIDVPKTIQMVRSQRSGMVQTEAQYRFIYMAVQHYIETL
How it was run: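 SHP-2 (Met1-Leu525), 0.5 nM, activated with 500 nM IRS1 bis-phosphopeptide, preincubated 30 min with compounds in HEPES pH 7.2 buffer with 5 mM DTT. 75 μM DiFMUP added for 30 min at room temperature, stopped with bpV; fluorescence read. IC50 from four-parameter logistic fit of % inhibition.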

Row | IC50 ([1]; Homo sapiens, KYSE-520, 2 h) | IC50 [2] | IC50 [1] | Compound
1 | < 1 µM | < 0.5 µM |  | NC[C@]1(c2ccccc2F)[C@@H]2CCN(c3cnc(Sc4ccc(C(N)=O)cc4Cl)cn3)C[C@@H]21 [Example 421, 4-((5-((1S,6R,7R)-7-(aminomethyl)-7-(2-fluorophenyl)-3-azabicyclo[4.1.0]heptan-3-yl)pyrazin-2-yl)thio)-3-chlorobenzamide]
2 | < 1 µM | < 0.5 µM |  | Cn1cc2c(Cl)c(-c3n[nH]c4nc(N5C[C@@H]6[C@H](C5)[C@@]6(CN)c5nc(C(F)(F)F)cs5)cnc34)ccc2n1 [Example 488, ((1R,5S,6r)-3-(3-(4-chloro-2-methyl-2H-indazol-5-yl)-1H-pyrazolo[3,4-b]pyrazin-6-yl)-6-(4-(trifluoromethyl)thiazol-2-yl)-3-azabicyclo[3.1.0]hexan-6-yl)methanamine]
3 |  | < 0.5 µM | < 1 µM | Cc1csc([C@@]2(CN)[C@@H]3CN(c4cnc5c(-c6ccc7nccnc7c6Cl)n[nH]c5n4)C[C@@H]32)n1 [Example 460]

The next lines start with the molecule.

Row | Compound | IC50 ([1]; Homo sapiens, KYSE-520, 2 h) | IC50 [2] | IC50 [1]
4 | Cn1ccc2c(F)c(-c3n[nH]c4nc(N5CC[C@@H]6[C@H](C5)[C@@]6(CN)c5ccccc5F)cnc34)ccc2c1=O [Example 316, 6-(6-((1S,6R,7R)-7-(aminomethyl)-7-(2-fluorophenyl)-3-azabicyclo[4.1.0]heptan-3-yl)-1H-pyrazolo[3,4-b]pyrazin-3-yl)-5-fluoro-2-methylisoquinolin-1(2H)-one] | < 1 µM | < 0.5 µM | 
5 | Cn1cnc2ccc(-c3n[nH]c4nc(N5CC[C@@H]6[C@H](C5)[C@@]6(CN)c5ccccc5F)cnc34)c(Cl)c21 [Example 338, ((1S,6R,7R)-3-(3-(7-chloro-1-methyl-1H-benzo[d]imidazol-6-yl)-1H-pyrazolo[3,4-b]pyrazin-6-yl)-7-(2-fluorophenyl)-3-azabicyclo[4.1.0]heptan-7-yl)methanamine] | < 1 µM | < 0.5 µM | 
6 | Cc1cc([C@@]2(CN)[C@@H]3CCN(c4cnc5c(-c6ccnc7cccc(F)c67)n[nH]c5n4)C[C@@H]32)no1 [Example 41, ((1S,6R,7S)-3-(3-(5-fluoroquinolin-4-yl)-1H-pyrazolo[3,4-b]pyrazin-6-yl)-7-(5-methylisoxazol-3-yl)-3-azabicyclo[4.1.0]heptan-7-yl)methanamine] | < 1 µM | < 0.5 µM | 
7 | NC[C@]1(c2ccccc2F)[C@@H]2CCN(c3cnc4c(-c5ccc6c(c5Cl)C(F)(F)C(=O)N6)n[nH]c4n3)C[C@@H]21 [Example 373, 5-(6-((1S,6R,7R)-7-(aminomethyl)-7-(2-fluorophenyl)-3-azabicyclo[4.1.0]heptan-3-yl)-1H-pyrazolo[3,4-b]pyrazin-3-yl)-4-chloro-3,3-difluoroindolin-2-one] | < 1 µM | < 0.5 µM | 
8 | Cc1cc(C2(CN)C3CCN(c4cnc5c(-c6cccc7ncccc67)n[nH]c5n4)CC32)no1 (centres unmarked) [Example 9, (7-(5-methylisoxazol-3-yl)-3-(3-(quinolin-5-yl)-1H-pyrazolo[3,4-b]pyrazin-6-yl)-3-azabicyclo[4.1.0]heptan-7-yl)methanamine] | < 1 µM | < 0.5 µM | 
9 | NC[C@]1(c2ccccc2F)[C@@H]2CCN(c3cnc4c(-c5cc6cc[nH]c(=O)c6cc5Cl)n[nH]c4n3)C[C@@H]21 [Example 370, 6-(6-((1S,6R,7R)-7-(aminomethyl)-7-(2-fluorophenyl)-3-azabicyclo[4.1.0]heptan-3-yl)-1H-pyrazolo[3,4-b]pyrazin-3-yl)-7-chloroisoquinolin-1(2H)-one] | < 1 µM | < 0.5 µM | 
10 | NC[C@]1(c2ncccc2F)[C@@H]2CCN(c3cnc4c(-c5ccc(OC(F)(F)F)c6ncccc56)n[nH]c4n3)C[C@@H]21 [Example 144, ((1S,6R,7S)-7-(3-fluoropyridin-2-yl)-3-(3-(8-(trifluoromethoxy)quinolin-5-yl)-1H-pyrazolo[3,4-b]pyrazin-6-yl)-3-azabicyclo[4.1.0]heptan-7-yl)methanamine] | < 1 µM | < 0.5 µM | 
